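A five-concentration, 48-hour dose response in 96-well plates underlies each endpoint, interpolated linearly between surrounding concentrations. TGI: concentration producing complete growth inhibition.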
system: MCF7 breast; assay: inhibition of tumour cell growth, NCI panel, 48 h

| SMILES | TGI [µM] |
| --- | --- |
| CSc1nc(=O)cnn1C | > 100 |
| Nc1ncc2ncn(C3CCC(CO)O3)c2n1 (configuration not stated) | > 100 |

system: SK-MEL-5 melanoma; assay: inhibition of tumour cell growth, NCI panel, 48 h

| SMILES | TGI [µM] |
| --- | --- |
| O=NNc1ccc(S(=O)(=O)c2ccc3ccccc3c2)cn1 | > 100 |
| C[C@@H]1CC[C@H]2[C@H](C)C(OC3O[C@@H]4O[C@@]5(C)CC[C@H]6[C@H](C)CC[C@@H]([C@@H]3C)[C@@]46O5)O[C@@H]3O[C@@]4(C)CC[C@@H]1[C@]32O4 (some centres not stated) | > 100 |
| CN1CCC(C(O)(c2ccccc2)c2ccc(Br)cc2)CC1 (configuration not stated) | 27.9 |
| CC(=O)Nc1cccc(N2C(=O)/C(=C\c3cccc(Oc4ccccc4)c3)SC2c2ccccc2)c1 (configuration not stated) | > 100 |
| O=c1c(Sc2c(SCSc3cnc4ccccc4c3Sc3c[nH]c4ccccc4c3=O)cnc3ccccc23)c[nH]c2ccccc12 | > 100 |
| CSc1nc(=O)cnn1C | > 100 |
| Nc1ncc2ncn(C3CCC(CO)O3)c2n1 (configuration not stated) | > 100 |

system: T-47D breast; assay: inhibition of tumour cell growth, NCI panel, 48 h

| SMILES | TGI [µM] |
| --- | --- |
| O=NNc1ccc(S(=O)(=O)c2ccc3ccccc3c2)cn1 | > 100 |
| C[C@@H]1CC[C@H]2[C@H](C)C(OC3O[C@@H]4O[C@@]5(C)CC[C@H]6[C@H](C)CC[C@@H]([C@@H]3C)[C@@]46O5)O[C@@H]3O[C@@]4(C)CC[C@@H]1[C@]32O4 (some centres not stated) | > 100 |
| CN1CCC(C(O)(c2ccccc2)c2ccc(Br)cc2)CC1 (configuration not stated) | 78.3 |
| CC(=O)Nc1cccc(N2C(=O)/C(=C\c3cccc(Oc4ccccc4)c3)SC2c2ccccc2)c1 (configuration not stated) | > 100 |
| O=c1c(Sc2c(SCSc3cnc4ccccc4c3Sc3c[nH]c4ccccc4c3=O)cnc3ccccc23)c[nH]c2ccccc12 | > 100 |
| CSc1nc(=O)cnn1C | > 100 |
| Nc1ncc2ncn(C3CCC(CO)O3)c2n1 (configuration not stated) | > 100 |

system: NCI-H23 lung; assay: inhibition of tumour cell growth, NCI panel, 48 h

| SMILES | TGI [µM] |
| --- | --- |
| O=NNc1ccc(S(=O)(=O)c2ccc3ccccc3c2)cn1 | > 100 |
| C[C@@H]1CC[C@H]2[C@H](C)C(OC3O[C@@H]4O[C@@]5(C)CC[C@H]6[C@H](C)CC[C@@H]([C@@H]3C)[C@@]46O5)O[C@@H]3O[C@@]4(C)CC[C@@H]1[C@]32O4 (some centres not stated) | > 100 |
| CN1CCC(C(O)(c2ccccc2)c2ccc(Br)cc2)CC1 (configuration not stated) | > 100 |
| CC(=O)Nc1cccc(N2C(=O)/C(=C\c3cccc(Oc4ccccc4)c3)SC2c2ccccc2)c1 (configuration not stated) | > 100 |
| O=c1c(Sc2c(SCSc3cnc4ccccc4c3Sc3c[nH]c4ccccc4c3=O)cnc3ccccc23)c[nH]c2ccccc12 | > 100 |
| CSc1nc(=O)cnn1C | > 100 |
| Nc1ncc2ncn(C3CCC(CO)O3)c2n1 (configuration not stated) | > 100 |

system: SNB-75 CNS; assay: inhibition of tumour cell growth, NCI panel, 48 h

| SMILES | TGI [µM] |
| --- | --- |
| O=NNc1ccc(S(=O)(=O)c2ccc3ccccc3c2)cn1 | > 100 |
| C[C@@H]1CC[C@H]2[C@H](C)C(OC3O[C@@H]4O[C@@]5(C)CC[C@H]6[C@H](C)CC[C@@H]([C@@H]3C)[C@@]46O5)O[C@@H]3O[C@@]4(C)CC[C@@H]1[C@]32O4 (some centres not stated) | > 100 |
| CN1CCC(C(O)(c2ccccc2)c2ccc(Br)cc2)CC1 (configuration not stated) | 91.5 |
| O=c1c(Sc2c(SCSc3cnc4ccccc4c3Sc3c[nH]c4ccccc4c3=O)cnc3ccccc23)c[nH]c2ccccc12 | > 100 |
| CSc1nc(=O)cnn1C | > 100 |
| Nc1ncc2ncn(C3CCC(CO)O3)c2n1 (configuration not stated) | > 100 |

system: HCC-2998 colon; assay: inhibition of tumour cell growth, NCI panel, 48 h

| SMILES | TGI [µM] |
| --- | --- |
| C[C@@H]1CC[C@H]2[C@H](C)C(OC3O[C@@H]4O[C@@]5(C)CC[C@H]6[C@H](C)CC[C@@H]([C@@H]3C)[C@@]46O5)O[C@@H]3O[C@@]4(C)CC[C@@H]1[C@]32O4 (some centres not stated) | > 100 |
| CN1CCC(C(O)(c2ccccc2)c2ccc(Br)cc2)CC1 (configuration not stated) | 25.1 |
| CC(=O)Nc1cccc(N2C(=O)/C(=C\c3cccc(Oc4ccccc4)c3)SC2c2ccccc2)c1 (configuration not stated) | > 100 |
| O=c1c(Sc2c(SCSc3cnc4ccccc4c3Sc3c[nH]c4ccccc4c3=O)cnc3ccccc23)c[nH]c2ccccc12 | > 100 |
| CSc1nc(=O)cnn1C | > 100 |

system: OVCAR-5 ovarian; assay: inhibition of tumour cell growth, NCI panel, 48 h

| SMILES | TGI [µM] |
| --- | --- |
| O=NNc1ccc(S(=O)(=O)c2ccc3ccccc3c2)cn1 | > 100 |
| C[C@@H]1CC[C@H]2[C@H](C)C(OC3O[C@@H]4O[C@@]5(C)CC[C@H]6[C@H](C)CC[C@@H]([C@@H]3C)[C@@]46O5)O[C@@H]3O[C@@]4(C)CC[C@@H]1[C@]32O4 (some centres not stated) | > 100 |
| CN1CCC(C(O)(c2ccccc2)c2ccc(Br)cc2)CC1 (configuration not stated) | 93.3 |
| CC(=O)Nc1cccc(N2C(=O)/C(=C\c3cccc(Oc4ccccc4)c3)SC2c2ccccc2)c1 (configuration not stated) | > 100 |
| O=c1c(Sc2c(SCSc3cnc4ccccc4c3Sc3c[nH]c4ccccc4c3=O)cnc3ccccc23)c[nH]c2ccccc12 | > 100 |
| CSc1nc(=O)cnn1C | > 100 |
| Nc1ncc2ncn(C3CCC(CO)O3)c2n1 (configuration not stated) | > 100 |

system: OVCAR-4 ovarian; assay: inhibition of tumour cell growth, NCI panel, 48 h

| SMILES | TGI [µM] |
| --- | --- |
| O=NNc1ccc(S(=O)(=O)c2ccc3ccccc3c2)cn1 | > 100 |
| C[C@@H]1CC[C@H]2[C@H](C)C(OC3O[C@@H]4O[C@@]5(C)CC[C@H]6[C@H](C)CC[C@@H]([C@@H]3C)[C@@]46O5)O[C@@H]3O[C@@]4(C)CC[C@@H]1[C@]32O4 (some centres not stated) | > 100 |
| CN1CCC(C(O)(c2ccccc2)c2ccc(Br)cc2)CC1 (configuration not stated) | > 100 |
| CC(=O)Nc1cccc(N2C(=O)/C(=C\c3cccc(Oc4ccccc4)c3)SC2c2ccccc2)c1 (configuration not stated) | > 100 |
| O=c1c(Sc2c(SCSc3cnc4ccccc4c3Sc3c[nH]c4ccccc4c3=O)cnc3ccccc23)c[nH]c2ccccc12 | > 100 |
| CSc1nc(=O)cnn1C | > 100 |
